Assay: Compound was tested for the inhibition of IL1-beta and interleukin-6-production
Assay type: functional

Nc1ncnc2c1ncn2[C@@H]1CC[C@@H](O)C1
IC50: 9 µM
